Measurements published in ChEMBL document CHEMBL4706576, “Tricyclic heterocycles display diverse sensitivity to the A147T TSPO polymorphism” (Eur J Med Chem, 2020).

Experiments:
Translocator protein = Translocator protein (Homo sapiens, UniProt P30536); experiment: Displacement of [3H]-PK11195 from wild type TSPO (unknown origin) expressed in human HEK293T cells assessed as inhibitory constant incubated for 90 mins by microbeta scintillation counting method; assay type: cell-based
Homo sapiens = organism: Homo sapiens; experiment: Selectivity index, ratio of Ki for TSPO A147T mutant (unknown origin) to Ki for wild type TSPO (unknown origin)

Sequence of Translocator protein (P30536 whole entry): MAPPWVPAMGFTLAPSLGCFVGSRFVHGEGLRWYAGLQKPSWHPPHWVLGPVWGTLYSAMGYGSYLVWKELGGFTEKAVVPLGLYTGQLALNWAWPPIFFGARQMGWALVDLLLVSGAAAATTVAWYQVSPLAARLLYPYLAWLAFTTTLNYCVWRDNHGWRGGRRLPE

Row | Structure (SMILES) | Ki (Translocator protein) [µM] | Ratio Ki (Homo sapiens)
1 | CN(Cc1ccccc1)C(=O)Cn1c2ccccc2c2ccccc21 | – | 2.5
2 | CCN(CC)C(=O)Cn1c2ccccc2c2ccccc21 | – | 5.9
3 | CN(C)C(=O)CN1Cc2cnn(C)c2Nc2ccccc21 | > 10 | –
4 | CN(C)C(=O)CN1c2ccccc2NC(=O)c2ccccc21 | > 10 | –
5 | CCN(CC)C(=O)CN1Cc2cnn(C)c2Nc2ccccc21 | 0.493 | 4.6
6 | CCN(Cc1ccccc1)C(=O)Cn1c2ccccc2c2ccccc21 | – | 5
7 | COc1ccc(-c2nn3c(C)cc(C)nc3c2CC(=O)N(C)C)cc1 | 0.338 | 1.7

Further compounds by falling Ki (Translocator protein), results first:

Row | Ki (Translocator protein) [µM] | Ratio Ki (Homo sapiens) | Structure (SMILES)
8 | 0.2 | 11.8 | CCN(CC)C(=O)CN1c2ccccc2NC(=O)c2ccccc21
9 | 0.0768 | 2.1 | CN(Cc1ccccc1)C(=O)CN1c2ccccc2NC(=O)c2ccccc21
10 | 0.0413 | 5.5 | CCN(Cc1ccccc1)C(=O)CN1Cc2cnn(C)c2Nc2ccccc21
11 | 0.0413 | 4.8 | CN(Cc1ccccc1)C(=O)CN1Cc2cnn(C)c2Nc2ccccc21
12 | 0.0158 | 6.2 | CCN(Cc1ccccc1)C(=O)CN1c2ccccc2NC(=O)c2ccccc21
13 | 0.0093 | 2.9 | COc1ccc(-c2nn3c(C)cc(C)nc3c2CC(=O)N(C)Cc2ccccc2)cc1
14 | 0.0062 | 13 | CCN(Cc1ccccc1)C(=O)Cc1c(-c2ccc(OC)cc2)nn2c(C)cc(C)nc12
